Results on 26 compounds are retold here after patent publication US7250157B2, “Dermatological compositions and methods” (Applied Genetics Incorporated Dermatics, priority 1996, dated 2007).

In series [1] the test system is Cloudman S91 mouse melanoma cell line. The series is described as follows: Melanin content of S91 cells after treatment with test compound. It is filed as cell-based. The conditions noted are these: for melanogenesis in S91 cells (≧2-fold increase = significant): range of concentrations up to a toxic dose. How it is done: The Cloudman S91 mouse melanoma cell line was obtained from American Type Culture Collection (ATCC). […] For testing propylene glycol and analogues for induction of melanogenesis, S91 cells were plated at 10^5 cells/35 mm dish in 10% calf serum. […] Cells were cultured for 6 days at 37° C. in 5% CO2 in a humidified incubator. Following this treatment period, cells were examined microscopically and the portion of dedifferentiated and differentiated cells was estimated.
Following this microscopic examination, cells were detached from dishes by trypsin. The time required for detachment by trypsin was recorded as an additional indicator of the phenotypic effects of test compounds. For each treatment, a subsample of cells was counted to determine the effects of treatment compounds on cellular proliferation. The remainder of cells were used for determination of melanin content. […] Absorbance of standards and samples was measured at 475 nm. Melanin was expressed as pg melanin/cell.

Series [2] relates to tyrosinase activity in S91 mouse melanoma cells. The series is described as follows: Induction of tyrosinase activity in S91 cells.
Series [3] deals with Tyrosinase in normal human epidermal melanocytes (NHEM). Description: Tyrosinase in NHEM (in situ, cellular, extracellular particulate, media). It is filed as cell-based. How it is done: Tyrosinase was measured in normal human epidermal melanocytes (NHEM) using procedures identical to those described for S91 cells (Example 6), […], 1600×g, or 17,300×g for analysis of tyrosinase activity in the extracellular exported melanosomal particulate fraction, and in the resultant supernatant media fraction. In some cases (Table 11), tyrosinase was also measured by an in situ assay wherein radiolabelled tyrosine was added directly to freshly replaced media of NHEM for a period of 24 hrs following a 5 day treatment period (Abdel-Malek, et al., 1992, J. Cell. Physiol. 150:416-425). […] Both 5 mM 5-NBene-2,2-DM and 25 mM 3,3-M-1,2-BD induced more tyrosinase in each of these assays and fractions than did 1,2-PG. IBMX (3-isobutyl-1-methyl-xanthine) provided as a positive control, induced as much tyrosinase as 5 mM 5-NBene-2,2-DM in the in situ assay, but less in cellular, extracellular particulate and media fractions (Table 11).

Setting [4] is: 300 mM PG-1,2, 25 mM 3,3-M-1,2-BD, 50 mM 1,2-cs-CPD, 5 mM 5-NBene-2,2-DM, 0.5 mM 2,3-Pyd, 0.1 mM IBMX, mean ±SE.
The mark [5] stands for this setting: 5 day treatment, concentrations as E130.
Setting [6] is: pair of replicates, concentrations as E130.

Several values for one entry are separate records, joined by “and”; a condition that tells them apart may be missing. Equal entries are not always repeated.

As to `O[C@@H]1CCC[C@H]1O` (relative stereo) [1,2-trans-Cyclopentanediol, 1,2-trans-cyclopentanediol], in series [1], the “Concentration Required for ≧2-fold Melanin Induction in S91 Cells” value turned out to be 50 mM.

Take `CC(O)(CO)c1ccccc1` (stereo not shown) [2-phenyl-1,2-propanediol]: the “melanogenesis in S91 cells (≧2-fold increase = significant)” value in series [1] is listed as “did not induce significant (≧2-fold increase) melanogenesis”.

Take `O=c1[nH]cc(CO)c(=O)[nH]1` [hydroxymethyl uracil]: in series [1], the “melanogenesis in S91 cells (≧2-fold increase = significant)” value is “did not induce significant (≧2-fold increase) melanogenesis”.

Consider 1-propanol, for which the “melanogenesis in S91 cells (≧2-fold increase = significant)” value in series [1] is “did not induce significant (≧2-fold increase) melanogenesis”.

As for `CNC[C@H](O)[C@@H](O)[C@H](O)[C@H](O)CO` [N-methyl-D-glucamine], the “melanogenesis in S91 cells (≧2-fold increase = significant)” value in series [1] is reported as “did not induce significant (≧2-fold increase) melanogenesis”.

On to `O=C(O)C(O)C(O)C(=O)O` (stereo not shown) [tartaric acid], for which, in series [1], the “melanogenesis in S91 cells (≧2-fold increase = significant)” value is listed as “did not induce significant (≧2-fold increase) melanogenesis”.

Turning to `CC(C)O` [2-propanol], the “melanogenesis in S91 cells (≧2-fold increase = significant)” value in series [1] is reported as “did not induce significant (≧2-fold increase) melanogenesis”.

As for `OCC1CC2CCC1C2` (stereo not shown) [2-NBaneM, 2-Norbornanemethanol], the “induction of tyrosinase in S91 cells compared with 5-NBene-2,2-DM (FIG. 2)” value in series [2] is on record as “Lesser induction”. Further, the “Tyrosinase Cellular” value is given as 10863 dpm/hr/10^3 cells in series [3] (Black-Neonatal-NHEM, 1 mM); 17397 dpm/hr/10^3 cells in series [3] (Black-Neonatal-NHEM, 5 mM); 15257 dpm/hr/10^3 cells in series [3] (White-Adult-NHEM, 1 mM); 16077 dpm/hr/10^3 cells in series [3] (White-Adult-NHEM, 5 mM). In addition, the “Tyrosinase Cellular relative to Control” value in series [3] (Black-Neonatal-NHEM, 1 mM) came to 1.10 X; in series [3] (Black-Neonatal-NHEM, 5 mM), 1.77 X; in series [3] (White-Adult-NHEM, 1 mM), 1.09 X; in series [3] (White-Adult-NHEM, 5 mM), 1.15 X. Further, the “Tyrosinase In Situ” value was 12.1 dpm/hr/10^3 cells in series [3] (Black-Neonatal-NHEM, 1 mM); 12.8 dpm/hr/10^3 cells in series [3] (Black-Neonatal-NHEM, 5 mM); 7.05 dpm/hr/10^3 cells in series [3] (White-Adult-NHEM, 1 mM); 6.18 dpm/hr/10^3 cells in series [3] (White-Adult-NHEM, 5 mM). The “Tyrosinase In Situ relative to Control” value in series [3] (Black-Neonatal-NHEM, 1 mM) is reported as 0.97 X; in series [3] (Black-Neonatal-NHEM, 5 mM), 1.02 X; in series [3] (White-Adult-NHEM, 1 mM) it was 1.27 X; in series [3] (White-Adult-NHEM, 5 mM), 1.11 X. Further, the “Tyrosinase Media relative to Control” value in series [3] (Black-Neonatal-NHEM, 1 mM) turned out to be 1.68 X; in series [3] (Black-Neonatal-NHEM, 5 mM), 3.36 X; in series [3] (White-Adult-NHEM, 1 mM), 1.11 X; in series [3] (White-Adult-NHEM, 5 mM), 1.33 X. For the same compound, the “Tyrosinase Media” value in series [3] (Black-Neonatal-NHEM, 1 mM, media from 1 day treatment period) is listed as 18.7 dpm/hr/10^3 cells; in series [3] (Black-Neonatal-NHEM, 5 mM, media from 1 day treatment period), 37.3 dpm/hr/10^3 cells; in series [3] (White-Adult-NHEM, 1 mM, media from 1 day treatment period), 29.2 dpm/hr/10^3 cells; in series [3] (White-Adult-NHEM, 5 mM, media from 1 day treatment period) it was 48.1 dpm/hr/10^3 cells.

As to `O=C1C(Nc2ccccc2)=CC(=O)c2ncccc21` [LY83583, 6-anilino-5,8-quinolinequinone, reference compound], the “effect on induction of melanogenesis by 5-NBene-2,2-DM in S91 cells (in words)” value (from here on “effect on induction of melanogenesis”) in series [2] is “reduced induction of melanogenesis by 5-NBene-2,2-DM”.

Turning to `CC1(C)C2CCC1(C)C(O)C2O` (stereo not drawn) [2,3-cis/exo-bornanediol], the “Fold Induction of Tyrosinase Relative to Controls” value is listed as 10.2X in series [2] (0.5 mM (Table 19)), 28.5X in series [2] (1 mM (Table 19)) and 101X in series [2] (2.5 mM (Table 19)). Also, in series [2] (Table 19 data), the “relative melanogenic potency in S91 cells (in words)” value was “more than twice as potent as 2,3-trans-bornanediol”.

Turning to `OCC1(CO)CC2CCC1C2` (stereo not shown) [NBane-2,2-DM, norbornane-2,2-dimethanol], the “induction of tyrosinase in S91 cells compared with 5-NBene-2,2-DM (FIG. 2)” value in series [2] is “equivalent potency”.

For `CC1C(O)CC2CC1C2(C)C` (single isomer, unassigned; (-)) [(−)-isopinocampheol], the “Fold Induction of Tyrosinase Relative to Controls” value is reported as 2.3X in series [2] (0.5 mM (Table 19)) and 3.3X in series [2] (1 mM (Table 19)). In addition, the “detachment of cells from culture dishes (no tyrosinase analysis)” value in series [2] (2.5 mM (Table 19)) is “NA^2”. The “toxicity to S91 cells (in words)” value in series [2] (higher concentrations tested (Table 19)) is on record as “resulted in detachment of cells from culture dishes”.

In the case of `COC(=O)[C@@]1(OC)C[C@H]2O[C@]1(C)n1c3ccccc3c3c4c(c5c6ccccc6n2c5c31)C(=O)N(C)C4` [KT5823, reference compound], in series [2], the “effect on induction of melanogenesis” value is “reduced induction of melanogenesis by 5-NBene-2,2-DM”.

`OC1C2CCC(C2)C1O` (stereo not drawn) [2,3-c/e-NBaneD, 2,3-cis/exo-Norbornanediol]: the “induction of tyrosinase in S91 cells compared with 5-NBene-2,2-DM (FIG. 2)” value in series [2] is on record as “Lesser induction”.

As to `OCC1(CO)CC=CCC1` [3-cyclohexane-1,1-dimethanol], the “Fold Induction of Tyrosinase Relative to Controls” value in series [2] (1 mM (Table 16)) is 1.4X; in series [2] (2.5 mM (Table 16)), 2.3X; in series [2] (5 mM (Table 16)), 7.0X.

On to `OCC1(O)CC2CCC1C2` (stereo not shown) [2-hydroxy-2-norbornanemethanol], for which the “Fold Induction of Tyrosinase Relative to Controls” value in series [2] (1 mM (Table 16)) was found to be 9.2X; in series [2] (2.5 mM (Table 16)), 15.5X; in series [2] (5 mM (Table 16)), 45.0X.

Consider `CC(C)[C@@H]1CC[C@@H](C)C[C@H]1O` [(1R,2S,5R)-(−)-menthol, (1R,2S,5R)-2-isopropyl-5-methylcyclohexanol], for which the “Fold Induction of Tyrosinase Relative to Controls” value in series [2] (0.5 mM (Table 19)) came to 2.0X; in series [2] (1 mM (Table 19)), 1.3X.

For the compound `CC1=CC[C@@H](C(C)(C)O)CC1` [(−)-a-terpineol, (S)-p-menth-1-en-8-ol], the entries for the “Fold Induction of Tyrosinase Relative to Controls” value in series [2] (0.5 mM (Table 19)), in series [2] (1 mM (Table 19)) and in series [2] (2.5 mM (Table 19)) were 6.2X, 7.1X and 4.7X, respectively.

`OC1CC2CCC1C2` (stereo not drawn) [α-NBane-ol, α-Norborneol]: in series [2], the “induction of tyrosinase in S91 cells compared with 5-NBene-2,2-DM (FIG. 2)” value is recorded as “Lesser induction”.

Regarding `CC(C)Cn1c(=O)n(C)c(=O)c2[nH]cnc21` [IBMX, 3-isobutyl-1-methylxanthine, reference compound], in series [2] (setting [4]), the “Tyrosinase dpm/hr 10^3 Cells” value is reported as 765 ± 53 dpm/hr/10^3 Cells and the “Tyrosinase dpm/hr ug Protein” value is 2161 ± 41 dpm/hr/ug Protein. Also, the “Tyrosinase In Situ” value in series [3] (5 day treatment, 300 mM 1,2-PG, 25 mM 3,3-M-1,2-BD, 5 mM 5-NBene-2,2-DM, 0.1 mM IBMX) was 25.3 dpm/hr/10^3 Cells and 26.1 dpm/hr/10^3 Cells. In addition, in series [3] (setting [5]), the “Tyrosinase 200 g Partic” value was 2189 dpm/hr/10^3 Cells and 1834 dpm/hr/10^3 Cells; the “Tyrosinase Cellular” value is 10910 dpm/hr/10^3 Cells and 11737 dpm/hr/10^3 Cells. Further, the “Tyrosinase 17300 g Partic” value in series [3] (Post 200 X g, 5 day treatment, concentrations as E130) is 220 dpm/hr/10^3 Cells and 260 dpm/hr/10^3 Cells. Further, the “Tyrosinase Media” value in series [3] (Post 17300 X g, 5 day treatment, concentrations as E130) was 2698 dpm/hr/10^3 Cells and 2935 dpm/hr/10^3 Cells. Further, in series [3] (setting [6]), the “Tyrosinase 200 g Partic, relative to controls (in parentheses)” value is “(5.86X)”; the “Tyrosinase 17300 g Partic, relative to controls (in parentheses)” value is given as “(2.10X)”; the “Tyrosinase Cellular, relative to controls (in parentheses)” value was “(1.11X)”; the “Tyrosinase In Situ, relative to controls (in parentheses)” value is “(1.62X)”. For the same compound, the “Tyrosinase Media, relative to controls (in parentheses)” value in series [3] (setting [6]) is given as “(1.81X)”.

`CC1CCC2CC1C2(C)C` [(1R)-(−)-α-pinane]: the “Fold Induction of Tyrosinase Relative to Controls” value in series [2] (0.5 mM (Table 19)) was 1.2X; in series [2] (1 mM (Table 19)) it was 0.8X; in series [2] (2.5 mM (Table 19)), 0.9X.

As to `OC1CC2CCC1C2O` (stereo not shown) [2,7-norbornanediol], the figures for the “Fold Induction of Tyrosinase Relative to Controls” value in series [2] (1 mM (Table 16)), in series [2] (2.5 mM (Table 16)) and in series [2] (5 mM (Table 16)) were 0.8X, 1.6X and 3.5X, respectively.

Consider `O=C(O)[C@@H]1[C@H](C(=O)O)[C@@H]2C=C[C@H]1C2` [5-norbornene-2,3-cis/endodicarboxylic acid], for which the results for the “Fold Induction of Tyrosinase Relative to Controls” value in series [2] (1 mM (Table 15)) and in series [2] (5 mM (Table 15)) were 2.2X and 1.0X, respectively.

As for `CC1(C)N([O])C(c2ccccc2)=[N+]([O-])C1(C)C` [PTIO, 2-phenyl-4,4,5,5-tetramethylimidazoline-1-oxyl-3-oxide, reference compound], the “effect on induction of melanogenesis” value in series [2] is reported as “reduced induction of melanogenesis by 5-NBene-2,2-DM”.

As for `OC[C@@H]1CCCC[C@@H]1CO` [1,2-cis-cyclohexanedimethanol], the “Fold Induction of Tyrosinase Relative to Controls” value in series [2] (1 mM (Table 16)) came to 0.9X; in series [2] (2.5 mM (Table 16)), 6.1X. Moreover, in series [2] (5 mM (Table 16)), the “detachment of cells from culture dishes (no tyrosinase analysis)” value was “NA^”.

Regarding 2,5 & 6,7-norbornanetriol, the “Fold Induction of Tyrosinase Relative to Controls” value in series [2] (1 mM (Table 15)) and in series [2] (2 mM (Table 15)) was 5.1X throughout.
